Patent US8648081B2 (Eli Lilly and Company, priority 2011, dated 2014)

test system: Lone star tick larvae (Amblyomma americanum); assay: In Vitro Larval Immersion Microassay (LIM); details: read-out: % Efficacy (percent larval mortality)
Protocol: In Vitro Larval Immersion Microassay (LIM)
The larval immersion microassay may be conducted as described in White, et al., J. Med. Entomol. […] Briefly, experimental test articles are formulated in dimethylsulfoxide (DMSO) to prepare a stock solution at a concentration of 10 mM. […] Approximately 30-50 Lone star tick larvae (Amblyomma americanum) are submerged into each well containing experimental test articles. After a 30 minute immersion period, larvae are removed with a wide-bore pipette tip in 0.05 ml of fluid, dispensed into a commercial paper tissue biopsy bag which is sealed at the top with a plastic dialysis clip, inverted and allowed to air dry for 60 minutes. Bags containing larvae are then incubated at approximately 27 degrees Celsius and >90% relative humidity. After 24 hours, bags are opened, live and dead larvae are counted and percent larval mortality is calculated as follows: % Efficacy=(# dead larvae)/(# total larvae)×100.

Row | Compound | mortality at 300 µM
1 | O=C(NC1CS(=O)(=O)C1)c1sc(C2=NOC(c3cc(Cl)c(F)c(Cl)c3)(C(F)(F)F)C2)c2c1CCCC2 (stereo not shown) [Example 79, 3-[5-(3,5-Dichloro-4-fluoro-phenyl)-5-trifluoromethyl-4,5-dihydro-isoxazol-3-yl]-4,5,6,7-tetrahydro-benzo[c]thiophene-1-carboxylic acid (1,1-dioxo-thietan-3-yl)-amide] | ≥ 80%
2 | O=C(NC1CCS(=O)(=O)CC1)c1sc(C2=NOC(c3cc(Cl)c(F)c(Cl)c3)(C(F)(F)F)C2)c2c1CCCC2 (stereo not shown) [Example 80, 3-[5-(3,5-Dichloro-4-fluoro-phenyl)-5-trifluoromethyl-4,5-dihydro-isoxazol-3-yl]-4,5,6,7-tetrahydro-benzo[c] thiophene-1-carboxylic acid (1,1-dioxo-hexahydro-thiopyran-4-yl)-amide] | ≥ 80%
3 | O=C1CCC(NC(=O)c2sc(C3=NOC(c4cc(Cl)c(F)c(Cl)c4)(C(F)(F)F)C3)c3c2CCCC3)CC1 (stereo not shown) [Example 81, 3-(5-(3,5-dichloro-4-fluorophenyl)-5-(trifluoromethyl)-4,5-dihydroisoxazol-3-yl)-N-(4-oxocyclohexyl)-4,5,6,7-tetrahydrobenzo [c]thiophene-1-carboxamide] | ≥ 80%
4 | O=C(NC1CCN(CC(F)(F)F)C1=O)c1sc(C2=NOC(c3cc(Cl)c(F)c(Cl)c3)(C(F)(F)F)C2)c2c1CCCC2 (stereo not shown) [Example 82] | ≥ 80%
5 | O=C(NC1CCOCC1)c1sc(C2=NOC(c3cc(Cl)c(F)c(Cl)c3)(C(F)(F)F)C2)c2c1CCCC2 (stereo not shown) [Example 83, 3-(5-(3,5-dichloro-4-fluorophenyl)-5-(trifluoromethyl)-4,5-dihydro-isoxazol-3-yl)-N-(tetrahydro-2H-pyran-4-yl)-4,5,6,7-tetrahydro-benzo[c]thiophene-1-carboxamide] | ≥ 80%
6 | O=C(NC1CCN(C2CC2)C1=O)c1sc(C2=NOC(c3cc(Cl)c(F)c(Cl)c3)(C(F)(F)F)C2)c2c1CCCC2 (stereo not shown) [Example 84, N-(1-cyclopropyl-2-oxopyrrolidin-3-yl)-3-(5-(3,5-dichloro-4-fluorophenyl)-5-(trifluoromethyl)-4,5-dihydroisoxazol-3-yl)-4,5,6,7-tetra-hydrobenzo[c] thiophene-1-carboxamide] | ≥ 80%
7 | O=C1CCC(NC(=O)c2sc(C3=NOC(c4cc(Cl)cc(Cl)c4)(C(F)(F)F)C3)c3c2CCC3)CC1 (stereo not shown) [Example 85, 3-(5-(3,5-dichloro-phenyl)-5-(trifluoro-methyl)-4,5-dihydro-isoxazol-3-yl)-N-(4-oxocyclohexyl)-5,6-dihydro-4H-cyclopenta[c] thiophene-1-carboxamide] | ≥ 80%
8 | O=C(NC1CCN(CC(F)(F)F)C1=O)c1sc(C2=NOC(c3cc(Cl)cc(Cl)c3)(C(F)(F)F)C2)c2c1CCC2 (stereo not shown) [Example 86, 3-(5-(3,5-dichloro-phenyl)-5-(trifluoro-methyl)-4,5-dihydro-isoxazol-3-yl)-N-(2-oxo-1-(2,2,2-trifluoroethyl)pyrrolidin-3-yl)-5,6-dihydro-4H-cyclopenta[c] thiophene-1-carboxamide] | ≥ 80%
9 | O=C(N[C@@H]1CCNC1=O)c1sc(C2=NO[C@@](c3cc(Cl)cc(Cl)c3)(C(F)(F)F)C2)c2c1CCCC2 [Example 87b, 3-((S)-5-(3,5-dichlorophenyl)-5-(trifluoromethyl)-4,5-dihydroisoxazol-3-yl)-N—((R)-2-oxopyrrolidin-3-yl)-4,5,6,7-tetrahydrobenzo[c]thiophene-1-carboxamide] | ≥ 80%
10 | N#CCNC(=O)CNC(=O)c1sc(C2=NOC(c3cc(Cl)cc(Cl)c3)(C(F)(F)F)C2)c2c1CCCC2 (stereo not shown) [Example 94, N-(2-(cyanomethylamino)-2-oxoethyl)-3-(5-(3,5-dichlorophenyl)-5-(trifluoromethyl)-4,5-dihydroisoxazol-3-yl)-4,5,6,7-tetrahydrobenzo[c]thiophene-1-carboxamide] | ≥ 80%
11 | C#CCNC(=O)CNC(=O)c1sc(C2=NOC(c3cc(Cl)cc(Cl)c3)(C(F)(F)F)C2)c2c1CCCC2 (stereo not shown) [Example 95, 3-(5-(3,5-dichlorophenyl)-5-(trifluoromethyl)-4,5-dihydroisoxazol-3-yl)-N-(2-oxo-2-(prop-2-ynylamino)ethyl)-4,5,6,7-tetrahydrobenzo [c]thiophene-1-carboxamide] | ≥ 80%
12 | FC(F)(F)C1(c2cc(Cl)cc(Cl)c2)CC(c2cc3ccncc3s2)=NO1 (stereo not shown) [Example 230, 2-[5-(3,5-Dichloro-phenyl)-5-tri-fluoromethyl-4,5-dihydro-isoxazol-3-yl]-thieno[2,3-c] pyridine] | ≥ 80%
13 | FC(F)(F)C1(c2cc(Cl)cc(Cl)c2)CC(c2cc3cc(Br)cnc3s2)=NO1 (stereo not shown) [Example 231, 5-Bromo-2-[5-(3,5-dichloro-phenyl)-5-trifluoromethyl-4,5-dihydro-isoxazol-3-yl]-thieno[2,3-b]pyridine] | ≥ 80%
14 | FC(F)(F)C1(c2cc(Cl)cc(Cl)c2)CC(c2cc3cccnc3s2)=NO1 (stereo not shown) [Example 232, 2-[5-(3,5-Dichloro-phenyl)-5-tri-fluoromethyl-4,5-dihydro-isoxazol-3-yl]-thieno[2,3-b] pyridine] | ≥ 80%
15 | FC(F)(F)C1(c2cc(Cl)cc(Cl)c2)CC(c2cc3ccccc3s2)=NO1 (stereo not shown) [Example 233, 3-(benzo[b]thio-phen-2-yl)-5-(3,5-dichlorophenyl)-5-(trifluoromethyl)-4,5-dihydroisoxazole] | ≥ 80%
16 | Cc1ccc2sc(C3=NOC(c4cc(Cl)cc(Cl)c4)(C(F)(F)F)C3)cc2c1 (stereo not shown) [Example 236, 5-(3,5-dichloro-phenyl)-3-(5-methyl-benzo[b]thiophen-2-yl)-5-(trifluoro-methyl)-4,5-dihydro-isoxazole] | ≥ 80%
17 | FC(F)(F)C1(c2cc(Cl)cc(Cl)c2)CC(c2cc3cc(Cl)ccc3s2)=NO1 (stereo not shown) [Example 237, 3-(5-chlorobenzo [b]thiophen-2-yl)-5-(3,5-dichloro-phenyl)-5-(trifluoro-methyl)-4,5-dihydroisoxazole] | ≥ 80%
18 | O=C(CNC(=O)c1cnc2sc(C3=NOC(c4cc(Cl)cc(Cl)c4)(C(F)(F)F)C3)cc2c1)NCC(F)(F)F (stereo not shown) [Example 240, 2-(5-(3,5-dichlorophenyl)-5-(trifluoromethyl)-4,5-dihydroisoxazol-3-yl)-N-(2-oxo-2-(2,2,2-trifluoroethylamino)ethyl)thieno[2,3-b]pyridine-5-carboxamide] | ≥ 80%
19 | O=C(N[C@@H]1CCNC1=O)c1cnc2sc(C3=NOC(c4cc(Cl)cc(Cl)c4)(C(F)(F)F)C3)cc2c1 (stereo partly drawn) [Example 241, 2-(5-(3,5-dichloro-phenyl)-5-(trifluoro-methyl)-4,5-dihydro-isoxazol-3-yl)-N-((R)-2-oxopyrrolidin-3-yl)thieno[2,3-b] pyridine-5-carboxamide] | ≥ 80%
20 | O=C(CNC(=O)c1sc(C2=NO[C@@](c3cc(Cl)c(F)c(Cl)c3)(C(F)(F)F)C2)c2c1CCC2)NCC(F)(F)F [Example 243, (S)-3-(5-(3,5-dichloro-4-fluorophenyl)-5-(trifluoromethyl)-4,5-dihydroisoxazol-3-yl)-N-(2-oxo-2-(2,2,2-trifluoroethylamino)ethyl)-5,6-dihydro-4H-cyclopenta[c]thiophene-1-carboxamide] | ≥ 80%
21 | O=C(CNC(=O)c1sc(C2=NOC(c3cc(Cl)c(F)c(Cl)c3)(C(F)(F)F)C2)c2c1CCC2)NCC(F)F (stereo not shown) [Example 244, 3-[5-(3,5-dichloro-4-fluoro-phenyl)-5-trifluoromethyl-4,5-dihydro-isoxazol-3-yl]-5,6-dihydro-4H-cyclopenta[c]thiophene-1-carboxylic acid [(2,2-difluoro-ethylcarbamoyl)-methyl]-amide] | ≥ 80%
22 | O=C(CNC(=O)c1sc(C2=NO[C@@](c3cc(Cl)c(F)c(Cl)c3)(C(F)(F)F)C2)c2c1CCC2)NCC(F)F [Example 245, (S)-3-[5-(3,5-dichloro-4-fluoro-phenyl)-5-trifluoromethyl-4,5-dihydro-isoxazol-3-yl]-5,6-dihydro-4H-cyclopenta[c]thiophene-1-carboxylic acid [(2,2-difluoro-ethylcarbamoyl)-methyl]-amide] | ≥ 80%
23 | O=C(CNC(=O)c1sc(C2=NOC(c3cc(Cl)c(F)c(Cl)c3)(C(F)(F)F)C2)c2c1CCC2)NCCF (stereo not shown) [Example 246, 3-[5-(3,5-Dichloro-4-fluoro-phenyl)-5-trifluoromethyl-4,5-dihydro-isoxazol-3-yl]-5,6-dihydro-4H-cyclopenta[c]thiophene-1-carboxylic acid [(2-fluoro-ethylcarbamoyl)-methyl]-amide] | ≥ 80%
24 | O=C(CNC(=O)c1sc(C2=NO[C@@](c3cc(Cl)c(F)c(Cl)c3)(C(F)(F)F)C2)c2c1CCC2)NCCF [Example 247, (S)-3-[5-(3,5-Dichloro-4-fluoro-phenyl)-5-trifluoromethyl-4,5-dihydro-isoxazol-3-yl]-5,6-dihydro-4H-cyclopenta[c]thiophene-1-carboxylic acid [(2-fluoro-ethylcarbamoyl)-methyl]-amide] | ≥ 80%

same assay, conditions: tested at 300 micromolar, 30 minute immersion, mortality counted after 24 hours, read-out: % Efficacy (percent larval mortality)

Row | Compound | mortality at 300 µM
25 | N#CCNC(=O)CNC(=O)c1sc(C2=NOC(c3sc(Cl)c(Cl)c3Cl)(C(F)(F)F)C2)c2c1CCCC2 (stereo not shown) [Example 96, N-(2-(cyanomethylamino)-2-oxoethyl)-3-(5-(3,4,5-trichlorothiophen-2-yl)-5-(trifluoromethyl)-4,5-dihydroisoxazol-3-yl)-4,5,6,7-tetrahydro-benzo[c]thiophene-1-carboxamide] | ≥ 80%
